According to US20240033234A1, “THERAPEUTIC COMPOUNDS, FORMULATIONS, AND USE THEREOF” (Tvardi Therapeutics, Inc., priority 2022, published 2024):
Where “and” joins values, the source holds several entries; their conditions need not be identical. Equal values may be shown once. One block for each compound: values may come before it.

Test: 3-Month stability data for TTI-101 Batches B, C, D and E stored at 40° C./75% RH
Format: physicochemical
Description: Exemplary HPLC conditions: diluent was 0.1% trifluoroacetic acid (TFA) in acetonitrile, Mobile Phase A was 0.05% TFA in water, and Mobile Phase B was 0.05% TFA in acetonitrile, column (Agilent, Eclipse XDB-C18, 3.0×100 mm, particle size 1.8 μm), flow (0.425 mL/min), and detector (280 nm diode array).
Batches B, C, and D were prepared according to Method 5, Method 4, and Method 3, respectively, as described in Example 1. Batch E was prepared analogously using according to Method 1 as described in Example 1.
Samples of TTI-101 (Batches B, C, D, and E) were stored at 40° C./75% RH for 3 months. The batches were individually stored in an low density polyethylene (LDPE) bag enclosed with a Nylon cable tie and then transferred to another LDPE bag and enclosed with a Nylon cable tie. The enclosure was put into a high density polyethylene (HDPE) bottle and closed with a polyethylene-lined polypropylene cap. For Batch B only, another sample was enclosed in a screw-top amber glass bottle and closed with a cap. The samples were stored under the above-identified conditions.

Impurities Total, Area % (0 M): 0.2 Area %
Impurity RRT 0.39, Area % (0 M): 0.06 Area %
Impurity RRT 0.49, Area % (0 M): NQ (≥0.02% and <0.05%)
Impurity RRT 0.54, Area % (0 M): NQ (≥0.02% and <0.05%)
Impurity RRT 0.99, Area % (0 M): NQ (≥0.02% and <0.05%)
Impurity RRT 1.16 (Cmp 6), Area % (0 M): 0.12 Area %
Impurities Total, Area % (1 M): 0.1 Area % and 0.3 Area %
Impurity RRT 0.80, Area % (1 M): NQ (≥0.02% and <0.05%)
Impurity RRT 0.84, Area % (1 M): NQ (≥0.02% and <0.05%)
Impurity RRT 0.87, Area % (1 M): NQ (≥0.02% and <0.05%)
Impurity RRT 0.99, Area % (1 M): NQ (≥0.02% and <0.05%)
Impurity RRT 1.02, Area % (1 M): 0.05 Area %
Impurity RRT 1.05, Area % (1 M): NQ (≥0.02% and <0.05%)
Impurity RRT 1.06 (Cmp 4), Area % (1 M): NQ (≥0.02% and <0.05%)
Impurity RRT 1.17 (Cmp 6), Area % (1 M): 0.24 Area %
Impurity RRT 1.39, Area % (1 M): NQ (≥0.02% and <0.05%)
Impurities Total, Area % (2 M): 0.6 Area %
Impurity RRT 0.39, Area % (2 M): NQ (≥0.02% and <0.05%)
Impurity RRT 0.51, Area % (2 M): 0.06 Area %
Impurity RRT 0.80, Area % (2 M): NQ (≥0.02% and <0.05%)
Impurity RRT 0.84, Area % (2 M): NQ (≥0.02% and <0.05%)
Impurity RRT 0.87, Area % (2 M): NQ (≥0.02% and <0.05%)
Impurity RRT 0.99, Area % (2 M): NQ (≥0.02% and <0.05%)
Impurity RRT 1.02, Area % (2 M): 0.11 Area %
Impurity RRT 1.05, Area % (2 M): NQ (≥0.02% and <0.05%)
Impurity RRT 1.06 (Cmp 4), Area % (2 M): NQ (≥0.02% and <0.05%)
Impurity RRT 1.17 (Cmp 6), Area % (2 M): 0.32 Area %
Impurity RRT 1.39, Area % (2 M): 0.10 Area % and 0.1 Area %
Impurities Total, Area % (3 M): 3.2 Area %
Impurity RRT 0.40, Area % (3 M): NQ (≥0.02% and <0.05%)
Impurity RRT 0.85, Area % (3 M): NQ (≥0.02% and <0.05%)
Impurity RRT 0.88, Area % (3 M): NQ (≥0.02% and <0.05%)
Impurity RRT 0.98, Area % (3 M): NQ (≥0.02% and <0.05%)
Impurity RRT 1.02, Area % (3 M): 0.13 Area %
Impurity RRT 1.05, Area % (3 M): NQ (≥0.02% and <0.05%)
Impurity RRT 1.06 (Cmp 4), Area % (3 M): NQ (≥0.02% and <0.05%)
Impurity RRT 1.13, Area % (3 M): NQ (≥0.02% and <0.05%)
Impurity RRT 1.16 (Cmp 6), Area % (3 M): 2.9 Area %
Impurity RRT 1.38 (1.39), Area % (3 M): 0.16 Area %
Purity (%) (T = 0 month (0 M)): 99.8% and 99.6%
Purity (%) (T = 1 month (1 M)): 99.5%
Purity (%) (T = 2 months (2 M)): 99.2%
Purity (%) (T = 3 months (3 M)): 96.6%
SMILES: COc1ccc(S(=O)(=O)Nc2cc(-c3c(O)ccc4ccccc34)c(O)c3ccccc23)cc1 [Batch B (LDPE storage)]

Impurities Total, Area % (0 M): 0.2 Area %
Impurity RRT 0.39, Area % (0 M): 0.06 Area %
Impurity RRT 0.49, Area % (0 M): NQ (≥0.02% and <0.05%)
Impurity RRT 0.54, Area % (0 M): NQ (≥0.02% and <0.05%)
Impurity RRT 0.99, Area % (0 M): NQ (≥0.02% and <0.05%)
Impurity RRT 1.16 (Cmp 6), Area % (0 M): 0.12 Area %
Impurities Total, Area % (1 M): 0.3 Area %
Impurity RRT 0.80, Area % (1 M): NQ (≥0.02% and <0.05%)
Impurity RRT 0.84, Area % (1 M): NQ (≥0.02% and <0.05%)
Impurity RRT 0.87, Area % (1 M): NQ (≥0.02% and <0.05%)
Impurity RRT 0.99, Area % (1 M): 0.05 Area %
Impurity RRT 1.02, Area % (1 M): 0.06 Area %
Impurity RRT 1.06 (Cmp 4), Area % (1 M): NQ (≥0.02% and <0.05%)
Impurity RRT 1.17 (Cmp 6), Area % (1 M): 0.23 Area %
Impurity RRT 1.39, Area % (1 M): NQ (≥0.02% and <0.05%)
Impurities Total, Area % (2 M): 0.4 Area %
Impurity RRT 0.39, Area % (2 M): NQ (≥0.02% and <0.05%)
Impurity RRT 0.80, Area % (2 M): NQ (≥0.02% and <0.05%)
Impurity RRT 0.84, Area % (2 M): NQ (≥0.02% and <0.05%)
Impurity RRT 0.87, Area % (2 M): NQ (≥0.02% and <0.05%)
Impurity RRT 0.99, Area % (2 M): NQ (≥0.02% and <0.05%)
Impurity RRT 1.02, Area % (2 M): 0.10 Area %
Impurity RRT 1.05, Area % (2 M): NQ (≥0.02% and <0.05%)
Impurity RRT 1.06 (Cmp 4), Area % (2 M): NQ (≥0.02% and <0.05%)
Impurity RRT 1.17 (Cmp 6), Area % (2 M): 0.323 Area % and 0.23 Area %
Impurity RRT 1.39, Area % (2 M): 0.09 Area %
Impurities Total, Area % (3 M): 2.9 Area %
Impurity RRT 0.40, Area % (3 M): NQ (≥0.02% and <0.05%)
Impurity RRT 0.85, Area % (3 M): NQ (≥0.02% and <0.05%)
Impurity RRT 0.88, Area % (3 M): NQ (≥0.02% and <0.05%)
Impurity RRT 0.98, Area % (3 M): NQ (≥0.02% and <0.05%)
Impurity RRT 1.02, Area % (3 M): 0.13 Area %
Impurity RRT 1.06 (Cmp 4), Area % (3 M): NQ (≥0.02% and <0.05%)
Impurity RRT 1.10, Area % (3 M): NQ (≥0.02% and <0.05%)
Impurity RRT 1.13, Area % (3 M): NQ (≥0.02% and <0.05%)
Impurity RRT 1.16 (Cmp 6), Area % (3 M): 2.6 Area %
Impurity RRT 1.38 (1.39), Area % (3 M): 0.14 Area %
Purity (%) (T = 0 month (0 M)): 99.8% and 99.6%
Purity (%) (T = 1 month (1 M)): 99.5%
Purity (%) (T = 2 months (2 M)): 99.4%
Purity (%) (T = 3 months (3 M)): 97.0%
SMILES: COc1ccc(S(=O)(=O)Nc2cc(-c3c(O)ccc4ccccc34)c(O)c3ccccc23)cc1 [Batch B (glass storage)]
